From patent US20210330611A1, “THERAPY FOR NEUROLOGICAL DISEASES/DISORDERS” (priority 2020, published 2021)
Read-outs that look alike come from different tables or passages of the source.

Key:
primary microglia = assay type: cell-based, rat; conditions: 48 h, FIG. 12
Experimental: FIGS. 12A-E. Effects of acivicin on microglia, macrophage and whole blood cell numbers. a, Representative images showing morphology and density of primary microglia treated with vehicle or acivicin for 48 h stained with nuclei marker Hoechst or CellMask Red Whole Cell Stain. Quantification of the total number of microglia. Data are representative of one experiment with technical replicates (open symbols). b, Representative confocal images showing morphology and density of control- and acivicin-treated BMDMs treated for 24 h. Scale bar, 100 μm. Insets depict digitally zoomed in areas of regions of interest. Quantification of the total number of BMDMs in the field of view. […] Cell viability of single CD45^+ cells was assessed by Sytox blue live/dead nuclei stain. Quantification of percent cell viability of CD45^+ BMDMs treated with acivicin or left untreated. Data are from 2 independent experiments with n=4 mice per group (mean±s.d.). d, Quantification of complete blood count analysis of white blood cells (WBCs), red blood cells (RBC), platelets (PLT) (left) and composition of WBCs (right) of blood samples from healthy mice treated with saline or acivicin for 10 days. […] Quantification of total microglia cell numbers in healthy mice treated with acivicin or saline. […]
Image-based HTS of small molecule inhibitors of microglia activation. […] The plates were stored in PBS for readout by imaging.

chronic NOD MOG35-55 EAE = assay: Chronic MOG35-55 EAE in NOD mice, clinical scores; assay type: in vivo, mouse; conditions: therapeutic, daily from day 80 to day 113, FIG. 8b
primary rat microglia = assay: Cell toxicity (dead cells, size <150 μm2) in coated fibrin (cFib) assay;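 as to Fibrin % cell toxicity: share of dead cells sized under 150 µm2 at 10 µM in fibrin-stimulated microglia HTS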
in vitro [1] = conditions: rat
[2] = system: fibrin- and LPS-induced microglia activation; assay: cells; assay type: cell-based, rat; conditions: for inhibition at 10 µM: Rattus norvegicus
[3] = Serum protein carbonyl content assay in MOG35-55 EAE mice; assay type: in vivo, mouse; conditions: FIG. 7g
Experimental: Protein carbonyl content assay. Blood was isolated from EAE mice via terminal cardiac puncture, and serum levels of protein carbonylation were measured with OxiSelect™ Protein Carbonyl ELISA (Cell Biolabs) according to the manufacturer's protocol. The absorbance at 450 nm was measured using a SpectraMax M5 microplate reader (Molecular Devices) with SoftMax Pro 5.2 software (Phoenix Technologies Ltd.).

in vitro [4] = conditions: rat, Cell Toxicity IC50 (uM) [cFib assay], cFib assay
[5] = system: proinflammatory gene expression; assay: qRT-PCR of spinal cord extracts of MOG35-55 EAE mice; assay type: in vivo, mouse; conditions: FIG. 7h
[6] = system: PLP139-151 EAE in SJL/J mice; assay: Relapsing PLP139-151 EAE in SJL/J mice, clinical scores; assay type: in vivo, mouse; conditions: therapeutic, daily from peak of initial paralytic episode, FIG. 7c
MOG35-55 EAE = assay: Immunohistochemistry of spinal cord lesions in MOG35-55 EAE mice; assay type: in vivo, mouse
GGT = GGT activity in spinal cord of MOG35-55 EAE mice; assay type: in vivo, mouse; conditions: FIG. 7e
Experimental: GGT activity assay. GGT activity was measured using the MaxDiscovery gamma-Glutamyl Transferase (GGT) Enzymatic Assay Kit (Bioo Scientific) according to the manufacturer's protocol. […]. For in vivo GGT activity assay, spinal cord tissues from the onset of MOG35-55 EAE or LPS-injected substantia nigra area at 12 h were prepared. Tissues were homogenized in 0.1 M Tris-HCl and centrifuged at 13,000 g for 30 min at 4° C. The supernatant was collected and subsequently assessed for GGT activity. The absorbance at 405 nm was detected with a SpectraMax M5 microplate reader (Molecular Devices) with SoftMax Pro 5.2 software (Phoenix Technologies Ltd.). The GGT activity in IU/1 was calculated following the manufacturer's protocol by multiplying the average increase in absorbance at 405 nm over 10 min GGT activity was also measured using a fluorescent probe, ProteoGREEN-gGlu (Goryo Chemical, Hokkaido, Japan), according to the manufacturer's protocol. Cultured BMDMs were plated on 96-well, black μ-clear-bottom microtiter plates (Greiner Bio-One) pre-coated with 25 μg/ml fibrin. […] The fluorescence intensity (excitation/emission filter pairs of 488 nm/520 nm) was measured using a SpectraMax M5 microplate reader (Molecular Devices) with SoftMax Pro 5.2 software (Phoenix Technologies).

Compound: N[C@H](C(=O)O)[C@@H]1CC(Cl)=NO1 [Acivicin, (2S)-2-amino-2-[(5S)-3-chloro-4,5-dihydro-1,2-oxazol-5-yl] acetic acid]
- microglia cell number in vitro (primary microglia): did not affect
- progression, clinical signs (chronic NOD MOG35-55 EAE): suppressed progression
- cell toxicity in microglia dose response (primary rat microglia; <20 μM, FIG. 6a): without cell toxicity
- Fibrin % cell toxicity (primary rat microglia; primary microglia HTS, fibrin stimulation, decreased size (<150 μm^2) as marker of toxicity): 2%
- IC50 (in vitro [1]): > 20 µM
- Quadrant (FIG. 5b) ([2]; HTS of 1907 compounds, quadrant by fibrin and LPS inhibition): Q2
- inhibition at 10 µM ([2]; Microglia, HTS hit classification, read-out: Hit): > 50%
- inhibition at 10 µM ([2]; hit classification in microglia HTS, read-out: Cherry-picked Hit (Suppl. Table 7)): > 50%
- Quadrant (FIG. 5b) ([2]; Table 1, screen at 10 μM): Q2
- Quadrant (FIG. 5b) ([2]; Table 2, screen at 10 μM): Q2
- Activity ([2]; Table 7, fib = fibrin, LPS, tox = toxicity): fib/LPS
- Quadrant (FIG. 5b) ([2]; quadrant by fibrin and LPS inhibition in HTS of 1907 compounds): Q2
- serum protein carbonyl content [3]: markedly reduced
- IC50 (in vitro [4]): > 20 µM
- proinflammatory gene expression [5]: markedly reduced
- clinical severity during relapses [6]: suppressed
- demyelination (MBP) (MOG35-55 EAE; FIG. 7i): markedly reduced
- neuronal damage (SMI-32) (MOG35-55 EAE; FIG. 7i): markedly reduced
- microglia activation (CX3CR1+ cells) (MOG35-55 EAE; FIG. 7j): markedly reduced
- monocyte/macrophage infiltration (CCR2+ cells) (MOG35-55 EAE; FIG. 7j): markedly reduced
- 4-hydroxynonenal (4-HNE) immunostaining (MOG35-55 EAE; spinal cord, peak disease, FIG. 7f): markedly reduced
- GGT activity in the EAE spinal cord (GGT): decreased
